Results reported in patent publication US20230312528A1, “2-OXO-IMIDAZOLIDINE-4-CARBOXAMIDES AS NAV1.8 INHIBITORS” (Merck Sharp & Dohme LLC, priority 2020, published 2023).

Biological target: human NaV1.8 (Homo sapiens (Human), UniProt Q9Y5Y9)
Assay: Nav1.8 Qube automated patch-clamp assay
Type: cell-based
Settings: human NaV1.8 stably expressed in HEK 293 cells; automated 384-well patch-clamp; resting or inactivated state not specified
In short: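 IC50 values from Hill-equation fits of offline percent inhibition: the 1st pulse gave resting and the 10th pulse inactivated-state inhibition. Stimulus was a 10 s, 1 Hz train to 10 mV (holding −90 mV, −67 mV interpulse) applied at room temperature to HEK293 cells stably expressing human NaV1.8 (Qube).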

Chain of human NaV1.8 (Q9Y5Y9 whole entry): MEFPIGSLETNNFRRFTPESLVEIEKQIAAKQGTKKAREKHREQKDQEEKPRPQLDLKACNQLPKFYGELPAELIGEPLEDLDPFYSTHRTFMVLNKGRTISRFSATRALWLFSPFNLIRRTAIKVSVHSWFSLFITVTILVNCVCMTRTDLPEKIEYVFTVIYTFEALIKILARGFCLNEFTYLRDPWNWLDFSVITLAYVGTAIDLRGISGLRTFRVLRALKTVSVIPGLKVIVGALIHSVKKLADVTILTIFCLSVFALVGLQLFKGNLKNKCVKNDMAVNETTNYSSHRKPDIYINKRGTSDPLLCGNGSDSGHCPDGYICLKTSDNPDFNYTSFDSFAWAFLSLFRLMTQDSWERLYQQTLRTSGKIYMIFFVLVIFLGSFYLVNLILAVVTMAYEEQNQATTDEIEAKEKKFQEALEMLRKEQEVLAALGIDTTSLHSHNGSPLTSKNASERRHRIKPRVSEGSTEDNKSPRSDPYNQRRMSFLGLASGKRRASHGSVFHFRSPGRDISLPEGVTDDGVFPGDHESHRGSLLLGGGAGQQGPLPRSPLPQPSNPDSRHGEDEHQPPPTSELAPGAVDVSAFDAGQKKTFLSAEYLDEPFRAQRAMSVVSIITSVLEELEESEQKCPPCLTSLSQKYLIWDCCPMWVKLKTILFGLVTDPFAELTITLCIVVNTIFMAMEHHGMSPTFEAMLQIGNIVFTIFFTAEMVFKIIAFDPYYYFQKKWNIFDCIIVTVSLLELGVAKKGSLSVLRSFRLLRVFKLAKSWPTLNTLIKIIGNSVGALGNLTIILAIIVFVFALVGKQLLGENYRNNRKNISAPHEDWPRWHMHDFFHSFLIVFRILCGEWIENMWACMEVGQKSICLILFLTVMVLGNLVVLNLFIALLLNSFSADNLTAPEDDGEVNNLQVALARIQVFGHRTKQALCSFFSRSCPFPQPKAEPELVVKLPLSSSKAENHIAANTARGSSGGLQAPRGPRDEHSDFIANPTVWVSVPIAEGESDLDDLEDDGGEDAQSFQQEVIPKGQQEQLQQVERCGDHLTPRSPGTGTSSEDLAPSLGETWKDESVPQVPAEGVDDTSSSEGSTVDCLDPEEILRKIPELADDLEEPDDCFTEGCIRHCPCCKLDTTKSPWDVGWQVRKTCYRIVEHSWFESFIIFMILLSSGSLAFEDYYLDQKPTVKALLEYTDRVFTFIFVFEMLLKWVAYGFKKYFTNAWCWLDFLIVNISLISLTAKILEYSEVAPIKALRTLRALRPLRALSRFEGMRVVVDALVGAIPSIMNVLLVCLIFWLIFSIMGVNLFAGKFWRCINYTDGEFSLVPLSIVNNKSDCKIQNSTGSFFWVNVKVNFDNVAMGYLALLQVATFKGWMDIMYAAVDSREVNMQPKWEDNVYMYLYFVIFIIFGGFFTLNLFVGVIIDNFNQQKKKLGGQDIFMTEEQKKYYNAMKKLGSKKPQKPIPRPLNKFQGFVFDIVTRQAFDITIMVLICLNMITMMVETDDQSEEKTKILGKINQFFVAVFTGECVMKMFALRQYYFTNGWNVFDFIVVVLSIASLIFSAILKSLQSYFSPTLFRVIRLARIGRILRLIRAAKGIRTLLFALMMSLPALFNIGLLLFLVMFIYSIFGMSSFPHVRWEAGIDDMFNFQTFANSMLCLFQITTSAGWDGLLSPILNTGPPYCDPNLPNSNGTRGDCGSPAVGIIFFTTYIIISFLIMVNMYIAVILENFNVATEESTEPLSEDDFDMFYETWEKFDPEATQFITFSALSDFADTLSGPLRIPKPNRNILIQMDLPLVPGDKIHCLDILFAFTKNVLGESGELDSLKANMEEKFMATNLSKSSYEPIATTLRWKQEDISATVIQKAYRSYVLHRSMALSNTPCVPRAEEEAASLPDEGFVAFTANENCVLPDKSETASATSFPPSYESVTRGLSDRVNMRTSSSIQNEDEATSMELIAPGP

| SMILES | IC50 |
| --- | --- |
| O=C1NC[C@@H](C(=O)NC(c2ccc(F)c(Cl)c2F)C2COC(C(F)(F)F)C2)N1 (single isomer, unassigned) [Example 79A, (S)-N-((R or S)-(3-chloro-2,4-difluoro-phenyl)((cis or trans)-5-(trifluoro-methyl)-tetrahydrofuran-3-yl)methyl)-2-oxoimidazolidine-4-carboxamide] | 39 nM |
| O=C1NC[C@@H](C(=O)NC(c2ccc(F)c(Cl)c2F)C2COC(C(F)(F)F)C2)N1 (single isomer, unassigned) [Example 79B, (S)-N-((R or S)-(3-chloro-2,4-difluoro-phenyl)((cis or trans)-5-(trifluoromethyl)tetrahydrofuran-3-yl)methyl)-2-oxoimidazolidine-4-carboxamide] | 190 nM |
| O=C1NC[C@@H](C(=O)NC(c2ccc(F)c(Cl)c2F)C2COC(C(F)(F)F)C2)N1 (single isomer, unassigned) [Example 79C, (S)-N-((R or S)-(3-chloro-2,4-difluoro-phenyl)((cis or trans)-5-(trifluoromethyl)tetrahydrofuran-3-yl)methyl)-2-oxoimidazolidine-4-carboxamide] | 886 nM |
| O=C1NC[C@@H](C(=O)NC(c2ccc(F)c(Cl)c2F)C2COC(C(F)(F)F)C2)N1 (single isomer, unassigned) [Example 79D, (S)-N-((R or S)-(3-chloro-2,4-difluoro-phenyl)((cis or trans)-5-(trifluoromethyl)tetrahydrofuran-3-yl)methyl)-2-oxoimidazolidine-4-carboxamide] | 3680 nM |
| O=C1NC[C@@H](C(=O)NC(c2ccc(F)c(Cl)c2F)C2COC(C(F)(F)F)C2)N1 (single isomer, unassigned) [Example 79E, (S)-N-((R or S)-(3-chloro-2,4-difluoro-phenyl)((cis or trans)-5-(trifluoromethyl)tetrahydrofuran-3-yl)methyl)-2-oxoimidazolidine-4-carboxamide] | 49 nM |
| O=C1NC[C@@H](C(=O)NC(c2ccc(F)c(Cl)c2F)C2COC(C(F)(F)F)C2)N1 (single isomer, unassigned) [Example 79F, (S)-N-((R or S)-(3-chloro-2,4-difluoro-phenyl)((cis or trans)-5-(trifluoromethyl)tetrahydrofuran-3-yl)methyl)-2-oxoimidazolidine-4-carboxamide] | 520 nM |
| O=C1NC[C@@H](C(=O)NC(c2ccc(F)c(Cl)c2F)C2COC(C(F)(F)F)C2)N1 (single isomer, unassigned) [Example 79G, (S)-N-((R or S)-(3-chloro-2,4-difluoro-phenyl)((cis or trans)-5-(trifluoromethyl)tetrahydrofuran-3-yl)methyl)-2-oxoimidazolidine-4-carboxamide] | 2330 nM |
| O=C1NC[C@@H](C(=O)NC(c2ccc(F)c(Cl)c2F)C2COC(C(F)(F)F)C2)N1 (single isomer, unassigned) [Example 79H, (S)-N-((R or S)-(3-chloro-2,4-difluoro-phenyl)((cis or trans)-5-(trifluoromethyl)tetrahydrofuran-3-yl)methyl)-2-oxoimidazolidine-4-carboxamide] | 3860 nM |
| O=C1NC[C@@H](C(=O)NC(c2ccc(Cl)cc2)c2ccn3nccc3c2)N1 (single isomer, unassigned) [Example 80A, (S)—N—((R or S)-(4-chlorophenyl)(pyrazolo[1,5-a]pyridin-5-yl)methyl)-2-oxoimidazolidine-4-carboxamide] | 100 nM |
| O=C1NC[C@@H](C(=O)NC(c2ccc(Cl)cc2)c2ccn3nccc3c2)N1 (single isomer, unassigned) [Example 80B, (S)-N-((R or S)-(4-chlorophenyl) (pyrazolo[1,5-a]pyridin-5-yl)methyl)-2-oxoimidazolidine-4-carboxamide] | 107 nM |
| Cc1nc2ccc(C(NC(=O)[C@@H]3CNC(=O)N3)c3ccc(Cl)cc3)cc2o1 (single isomer, unassigned) [Example 83A, (S)-N-((R or S)-(4-chlorophenyl)(2-methylbenzo[d]oxazol-6-yl)methyl)-2-oxoimidazolidine-4-carboxamide] | 147 nM |
| Cc1nc2ccc(C(NC(=O)[C@@H]3CNC(=O)N3)c3ccc(Cl)cc3)cc2o1 (single isomer, unassigned) [Example 83B, (S)-N-((R or S)-(4-chlorophenyl)(2-methylbenzo[d]oxazol-6-yl)methyl)-2-oxoimidazolidine-4-carboxamide] | 201 nM |
| O=C1NC[C@@H](C(=O)NC(c2ccc(F)c(Cl)c2)c2nc3ccccc3s2)N1 (single isomer, unassigned) [Example 87, (S)-N-((R or S)-benzo[d]thiazol-2-yl(3-chloro-4-fluoro-phenyl)methyl)-2-oxoimidazolidine-4-carboxamide] | 2.9 nM |
| O=C1NC[C@@H](C(=O)NC(c2ccc(F)c(Cl)c2)c2nc3ccccc3o2)N1 (single isomer, unassigned) [Example 88, (S)-N-((R or S)-benzo[d]oxazol-2-yl(3-chloro-4-fluoro-phenyl)methyl)-2-oxoimidazolidine-4-carboxamide] | 8.6 nM |
| O=C1NC[C@@H](C(=O)NC(c2ccc(OC(F)(F)F)cc2)c2ccc3c(c2)C(F)(F)C3)N1 (single isomer, unassigned) [Example 89, (S)—N—((R or S)-(8,8-difluorobicyclo[4.2.0]octa-1(6),2,4-trien-3-yl)(4-(trifluoromethoxy)phenyl)methyl)-2-oxoimidazolidine-4-carboxamide] | 4.9 nM |
| O=C1NC[C@@H](C(=O)NC(c2ccc(Cl)cc2)c2ccc3c(c2)CC3(F)F)N1 (single isomer, unassigned) [Example 90, (S)-N-((R or S)-(4-chlorophenyl)(7,7-difluorobicyclo[4.2.0]octa-1(6),2,4-trien-3-yl)methyl)-2-oxoimidazolidine-4-carboxamide] | 3.8 nM |
| O=C1NC[C@@H](C(=O)NC(c2ccc(Cl)cc2)c2ncc(Cl)c(C(F)(F)F)n2)N1 (stereo partly drawn) [Example 6, (S)—N-((5-chloro-4-(trifluoromethyl)pyrimidin-2-yl)(4-chlorophenyl)methyl)-2-oxoimidazolidine-4-carboxamide] | 28 nM |
| O=C1NC[C@@H](C(=O)NC(c2ccc(F)c(Cl)c2)c2ccc(F)c(Cl)c2)N1 [Example 61, (S)-N-(bis(3-chloro-4-fluorophenyl)methyl)-2-oxoimidazolidine-4-carboxamide] | 0.7 nM |
| CC1(C)CC(C(NC(=O)[C@@H]2CNC(=O)N2)c2ccc(F)c(Cl)c2)C1C(F)(F)F (stereo partly drawn) [Example 68, (4S)-N-((3-chloro-4-fluorophenyl)(3,3-dimethyl-2-(trifluoromethyl)cyclobutyl)methyl)-2-oxoimidazolidine-4-carboxamide] | 604 nM |
| O=C1NC[C@@H](C(=O)NC(c2ccc(F)c(Cl)c2)C2Cc3ccc(F)cc32)N1 (stereo partly drawn) [Example 69, (4S)-N-((3-chloro-4-fluorophenyl)(4-fluorobicyclo[4.2.0]octa-1(6),2,4-trien-7-yl)methyl)-2-oxoimidazolidine-4-carboxamide] | 141 nM |

The remaining lines, values ahead:

| IC50 | SMILES |
| --- | --- |
| 255 nM | O=C1NC[C@@H](C(=O)NC(c2ccc(Cl)cc2)c2ccc3cn[nH]c3c2)N1 (single isomer, unassigned) [Example 82A, (S)-N-((R or S)-(4-chlorophenyl)(1H-indazol-6-yl)methyl)-2-oxoimidazolidine-4-carboxamide] |
| 93 nM | O=C1NC[C@@H](C(=O)NC(c2ccc(Cl)cc2)c2ccc3cn[nH]c3c2)N1 (single isomer, unassigned) [Example 82B, (S)-N-((R or S)-(4-chlorophenyl)(1H-indazol-6-yl)methyl)-2-oxoimidazolidine-4-carboxamide] |
| 372 nM | CS(=O)(=O)c1ccc(C(NC(=O)[C@@H]2CNC(=O)N2)c2ccc(F)c(Cl)c2)cc1 (single isomer, unassigned) [Example 85A, (S)-N-((R or S)-(3-chloro-4-fluorophenyl)(4-(methylsulfonyl)phenyl)methyl)-2-oxoimidazolidine-4-carboxamide] |
| 1280 nM | CS(=O)(=O)c1ccc(C(NC(=O)[C@@H]2CNC(=O)N2)c2ccc(F)c(Cl)c2)cc1 (single isomer, unassigned) [Example 85B, (S)-N-((R or S)-(3-chloro-4-fluorophenyl)(4-(methylsulfonyl)phenyl)methyl)-2-oxoimidazolidine-4-carboxamide] |
| 289 nM | CC1(C)CC(C(NC(=O)[C@@H]2CNC(=O)N2)c2ccc(Cl)cc2)CCN1CC(F)(F)F (single isomer, unassigned) [Example 91A, (4S)—N—((R or S)(4-chlorophenyl)((R or S)2,2-dimethyl-1-(2,2,2-trifluoroethyl)piperidin-4-yl)methyl)-2-oxoimidazolidine-4-carboxamide] |
| 899 nM | CC1(C)CC(C(NC(=O)[C@@H]2CNC(=O)N2)c2ccc(Cl)cc2)CCN1CC(F)(F)F (single isomer, unassigned) [Example 91B, (4S)—N—((R or S)(4-chlorophenyl)((R or S)2,2-dimethyl-1-(2,2,2-trifluoroethyl)piperidin-4-yl)methyl)-2-oxoimidazolidine-4-carboxamide] |
| 2960 nM | CC1(C)CC(C(NC(=O)[C@@H]2CNC(=O)N2)c2ccc(Cl)cc2)CCN1CC(F)(F)F (single isomer, unassigned) [Example 91C, (4S)—N—((R or S)(4-chlorophenyl)((R or S)2,2-dimethyl-1-(2,2,2-trifluoroethyl)piperidin-4-yl)methyl)-2-oxoimidazolidine-4-carboxamide] |
| 458 nM | CC1(C)CC(C(NC(=O)[C@@H]2CNC(=O)N2)c2ccc(Cl)cc2)CCN1CC(F)(F)F (single isomer, unassigned) [Example 91D, (4S)—N—((R or S)(4-chlorophenyl)((R or S)2,2-dimethyl-1-(2,2,2-trifluoroethyl)piperidin-4-yl)methyl)-2-oxoimidazolidine-4-carboxamide] |
